The source made the active and inactive calls. The rule behind the calls is not given here.
Key:
Cell membrane [1] = assay: Induction of Inner membrane integrity in Staphylococcus aureus at 128 uM measured for 40 mins in presence of phosphatidylglycerol by T12 dye based analysis; format: subcellular
Staphylococcus aureus [2] = assay: Antibacterial activity against methicillin resistant Staphylococcus aureus assessed as bacterial viability up to 12 uM; format: functional, organism-based
Cell membrane [3] = assay: Induction of cell membrane damage in Staphylococcus aureus assessed as decrease in fluorescence intensity at 128 uM measured for 40 mins propidium iodide staining based analysis; format: subcellular
Cell membrane [4] = assay: Induction of Inner membrane integrity in Staphylococcus aureus at 128 uM measured for 40 mins T12 dye based analysis; format: subcellular
Escherichia coli [5] = assay: Antibacterial activity against Escherichia coli assessed as change in surface zeta potential at 16 uM incubated for 20 mins; format: functional, organism-based
Escherichia coli [6] = assay: Antibacterial activity against Escherichia coli incubated for 90 mins; format: functional, organism-based
Staphylococcus aureus [7] = assay: Antibacterial activity against methicillin resistant Staphylococcus aureus assessed as bacterial viability at 4 uM incubated for 90 mins relative to control; format: functional; settings: 1.5 h
Escherichia coli [8] = assay: Antibacterial activity against Escherichia coli assessed as effect on bacterial growth incubated for 90 mins; format: functional, organism-based
Cell membrane [9] = assay: Induction of Inner membrane integrity in Staphylococcus aureus at 128 uM measured for 40 mins in presence of cardiolipin by T12 dye based analysis
Staphylococcus aureus [10] = assay: Antibacterial activity against Staphylococcus aureus incubated for 90 mins; format: functional, organism-based; settings: dose 10.0 µM
Staphylococcus aureus [11] = assay: Antibacterial activity against methicillin resistant Staphylococcus aureus infected in Kunming mouse model of skin wound infection assessed as effect on wound healing rate at 5 mg/kg administered for 7 days; format: functional, organism-based; settings: time 7.0 day
Cell membrane [12] = assay: Induction of cytoplasmic membrane permeabilization in Staphylococcus aureus assessed as increase in fluorescence intensity at 16 uM incubated for […] by SYTO 9 staining based analysis
RAW264.7 = assay: Cytotoxicity against mouse RAW264.7 cells at 32 uM incubated for 24 hrs by CCK-8 assay; format: toxicity, cell-based; settings: raw264.7, 24 h
Cell membrane [13] = assay: Induction of cell membrane damage in Staphylococcus aureus at 20 uM incubated for 60 mins by TEM analysis; format: subcellular
Staphylococcus aureus [14] = assay: Antibiofilm activity in Staphylococcus aureus assessed as inhibition of biofilm formation incubated for 48 hrs by SYTO 9 staining based CLSM analysis; format: functional, organism-based
Cell membrane [15] = assay: Induction of cytoplasmic membrane permeabilization in Staphylococcus aureus assessed as increase in fluorescence intensity at 16 uM incubated for […] by CLSM analysis
Staphylococcus aureus [16] = assay: Bactericidal activity against Staphylococcus aureus assessed as bacterial viability at 4 uM pretreated with compound for 60 mins followed by white light irradiation for 30 mins by plate counting method; format: functional; settings: time 90 min, 1.5 h
Staphylococcus aureus [17] = assay: Bactericidal activity against Staphylococcus aureus assessed as reduction in bacterial colony count measured at 2 hrs; format: functional, organism-based
Staphylococcus aureus [18] = assay: Antibacterial activity against Staphylococcus aureus at 0.5 times MIC measured after 20 passages; format: functional, organism-based
Cell membrane [19] = assay: Induction of Inner membrane integrity in Staphylococcus aureus measured for 40 mins in presence of phosphatidylglycerol by T12 dye based analysis; format: subcellular; settings: dose 128.0 µM
Staphylococcus aureus [20] = assay: Antibacterial activity against Staphylococcus aureus assessed as increase in fluorescence intensity incubated for 20 mins; format: functional, organism-based
Staphylococcus aureus [21] = assay: Antibiofilm activity in Staphylococcus aureus assessed as inhibition of biofilm formation at 32 uM incubated for 48 hrs in presence of white light irradiation; format: functional; settings: light or radiation study
Cell membrane [22] = assay: Induction of Inner membrane integrity in Staphylococcus aureus measured for 40 mins in presence of cardiolipin by T12 dye based analysis; format: subcellular; settings: dose 128.0 µM
Staphylococcus aureus [23] = assay: Antibiofilm activity in Staphylococcus aureus assessed as inhibition of biofilm formation incubated for 48 hrs in presence of white light irradiation; format: functional, organism-based; settings: dose <= 32.0 µM
Staphylococcus aureus [24] = assay: Antibacterial activity against methicillin resistant Staphylococcus aureus infected in Kunming mouse model of skin wound infection assessed as effect on wound healing rate at 5 mg/kg administered for 7 days in presence of white light irradiation; format: functional, organism-based; settings: time 7.0 day
Staphylococcus aureus [25] = assay: Antipersister-activity against Staphylococcus aureus assessed as reduction in bacterial colony count preincubated with 100 times of MIC of rifampicin for 24 hrs followed by compound addition and measured after 8 hrs by drop plate counting method; format: functional, organism-based
Staphylococcus aureus [26] = assay: Induction of ROS accumulation in Staphylococcus aureus assessed as increase in singlet oxygen level by measuring reduction in HPF absorption peak at 10 uM irradiated with 650 nm 50 mW/cm2 light for 5 mins; format: functional, organism-based
Cell membrane [27] = assay: Induction of cell membrane damage in Staphylococcus aureus at 20 uM incubated for 60 mins by SEM analysis; format: subcellular
Staphylococcus aureus [28] = assay: Induction of ROS accumulation in Staphylococcus aureus assessed as fold increase in fluorescence intensity at 1 uM by DCFH-DA staining based analysis; format: functional
Staphylococcus aureus [29] = assay: Bactericidal activity against methicillin-resistant Staphylococcus aureus assessed as bacterial viability at 4 uM pretreated with compound for 60 mins followed by white light irradiation for 30 mins by plate counting method; format: functional; settings: time 90 min, 1.5 h
Staphylococcus aureus [30] = assay: Bactericidal activity against Staphylococcus aureus assessed as bacterial viability at 4 uM by plate counting method relative to control; format: functional
Staphylococcus aureus [31] = assay: Antibiofilm activity in Staphylococcus aureus assessed as inhibition of biofilm formation incubated for 48 hrs in presence of white light irradiation by SYTO 9 staining based CLSM analysis; format: functional, organism-based
Staphylococcus aureus [32] = assay: Drug resistance, ratio of MIC for Staphylococcus aureus after 20 passages to MIC for Staphylococcus aureus after initial exposure; format: functional
Staphylococcus aureus [33] = assay: Antibacterial activity against Staphylococcus aureus assessed as change in surface zeta potential at 16 uM incubated for 20 mins; format: functional, organism-based
Staphylococcus aureus [34] = assay: Antibiofilm activity in Staphylococcus aureus assessed as inhibition of biofilm formation at 8 uM incubated for 48 hrs; format: functional, organism-based
[35] = Hemolytic activity in sheep red blood cells assessed as hemolysis; format: toxicity, cell-based, Ovis aries, Erythrocyte
Staphylococcus aureus [36] = assay: Induction of ROS accumulation in Staphylococcus aureus assessed as increase in singlet oxygen level by measuring reduction in ABDA absorption peak at 10 uM irradiated with 650 nm 50 mW/cm2 light for 5 mins; format: functional, organism-based
HeLa = assay: Cytotoxicity against human HeLa cells at 32 uM incubated for 24 hrs by CCK-8 assay; format: functional, cell-based
Staphylococcus aureus [37] = assay: Antibacterial activity against methicillin resistant Staphylococcus aureus assessed as bacterial viability at 10 uM incubated for 90 mins relative to control; format: functional; settings: 1.5 h
Cell membrane [38] = assay: Induction of cell membrane damage in Staphylococcus aureus assessed as increase in fluorescence intensity at 128 uM measured for 40 mins propidium iodide staining based analysis

SMILES: CCCCCCCCCC[N+](C)(C)CCCOc1ccc(/C=C/c2ccc(N(c3ccccc3)c3ccccc3)cc2)cc1.[Br-]
- Activity (Cell membrane [1]): inactive
- Activity (Staphylococcus aureus [2]): Active
- Activity (Cell membrane [3]): Active
- Activity (Cell membrane [4]): Active
- Activity (Escherichia coli [5]): Active
- Activity (Escherichia coli [6]): Active
- Activity (Staphylococcus aureus [7]): 52%
- Activity (Escherichia coli [8]): inactive
- Activity (Cell membrane [9]): inactive
- Activity (Staphylococcus aureus [10]): Active

SMILES: C[N+](C)(C)CCCOc1ccc(/C=C/c2ccc(N(c3ccccc3)c3ccccc3)cc2)cc1.[Br-]
- Activity (Staphylococcus aureus [11]): Active
- Activity (Cell membrane [12]): Active
- Activity (RAW264.7): Non-toxic
- Activity (Cell membrane [13]): Active
- Activity (Staphylococcus aureus [2]): Active
- Activity (Staphylococcus aureus [14]): Active
- Activity (Cell membrane [15]): Active
- Activity (Staphylococcus aureus [16]): 0.5%
- Activity (Staphylococcus aureus [17]): Active
- Activity (Cell membrane [4]): Active
- Activity (Staphylococcus aureus [18]): Active
- Activity (Cell membrane [19]): Dose-dependent-effect
- Activity (Staphylococcus aureus [20]): Active
- inhibition at 32 µM (Staphylococcus aureus [21]): 100%
- Activity (Cell membrane [22]): Dose-dependent-effect
- Activity (Escherichia coli [5]): Active
- Activity (Staphylococcus aureus [23]): Dose-dependent-effect
- Activity (Escherichia coli [6]): Active
- Activity (Staphylococcus aureus [24]): Active
- Activity (Staphylococcus aureus [25]): Active
- Activity (Staphylococcus aureus [26]): Active
- Activity (Cell membrane [27]): Active
- fold change (FC) (Staphylococcus aureus [28]): 100
- Activity (Staphylococcus aureus [29]): ~100%
- Activity (Staphylococcus aureus [7]): 3%
- Activity (Escherichia coli [8]): inactive
- Activity (Staphylococcus aureus [30]): 11%
- Activity (Staphylococcus aureus [31]): Active
- Ratio (Staphylococcus aureus [32]): 64
- Activity (Staphylococcus aureus [33]): Active
- Activity (Staphylococcus aureus [34]): Active
- HC50 [35]: > 900 µM
- Activity (Staphylococcus aureus [36]): inactive
- Activity (HeLa): Active
- Activity (Staphylococcus aureus [10]): Active

SMILES: C[N+](C)(C)CCCOc1ccc(/C=C/c2ccccc2)cc1.[Br-]
- Activity (Cell membrane [1]): inactive
- Activity (Staphylococcus aureus [2]): Active
- Activity (Cell membrane [4]): Active
- Activity (Staphylococcus aureus [37]): 60%
- Activity (Escherichia coli [6]): Active
- Activity (Cell membrane [38]): Active
- Activity (Cell membrane [9]): inactive
- Activity (HeLa): Active
- Activity (Staphylococcus aureus [10]): Active

SMILES: CCCCCCCCCC[N+](C)(C)CCCOc1ccc(/C=C/c2ccccc2)cc1.[Br-]
- Activity (Staphylococcus aureus [2]): Active
- Activity (Cell membrane [4]): Active
- Activity (Cell membrane [19]): Dose-dependent-effect
- Activity (Staphylococcus aureus [37]): 0.1%
- Activity (Cell membrane [22]): Dose-dependent-effect
- Activity (Escherichia coli [6]): Active
- Activity (Cell membrane [27]): Active
- Activity (Cell membrane [38]): Active
- Activity (Staphylococcus aureus [10]): Active
